US10821100B2, “Triazolone compounds as mPGES-1 inhibitors” (Glenmark Pharmaceuticals S.A., priority 2012, dated 2020)
pIC50: −log10 of the molar value.

Molecular target: T1, Recombinant human mPGES-1 (Homo sapiens, UniProt O14684)
T1 construct: made in house; host or cells: CHO cells (crude microsomal fractions)
T1 sequence (O14684 1-152): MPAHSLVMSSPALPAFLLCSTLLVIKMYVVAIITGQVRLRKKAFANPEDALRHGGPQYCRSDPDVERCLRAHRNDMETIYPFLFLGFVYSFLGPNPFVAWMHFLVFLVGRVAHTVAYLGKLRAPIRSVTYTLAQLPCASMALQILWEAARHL
Assay: In-vitro screening of mPGES-1 inhibitors (inhibition of PGE2 formation from PGH2, HTRF detection)
Type: biochemical
Conditions: mPGES-1 enzyme; for inhibition at 1 µM: 1 μM test compound, read-out: Percentage inhibition at 1 μM; for inhibition at 10 µM: 10 μM test compound, read-out: Percentage inhibition at 10 μM; for pIC50: class symbols
How it was run: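 Crude CHO-expressed microsomes (40–60 μg/mL protein) preincubated 10 min with compound in 0.1 M potassium phosphate/2 mM EDTA containing 2.5 mM GSH, 0.5% DMSO final. PGH2 (15 μM) reacted 1 min, stopped with stannous chloride. PGE2 quantified by HTRF, IC50 from nonlinear regression of percent inhibition.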

| SMILES | inhibition at 1 µM (crude microsomal fractions) [%] | inhibition at 10 µM (crude microsomal fractions) [%] | pIC50 | inhibition at 3 µM (3 μM test compound, crude microsomal fractions, read-out: Percentage inhibition at 3 μM) [%] |
| --- | --- | --- | --- | --- |
| COc1cc(-n2nc(-c3c(C)cccc3Cl)[nH]c2=O)ccc1-c1nc(-c2ccc(Cl)cc2)no1 [Example-55, 3-(2-Chloro-6-methylphenyl)-1-(4-(3-(4-chlorophenyl)-1,2,4-oxadiazol-5-yl)-3-methoxyphenyl)-1H-1,2,4-triazol-5(4H)-one] | 81 | – | > 7.30 | 91.8 |
| COc1cc(-n2nc(-c3c(Cl)cccc3Cl)[nH]c2=O)ccc1C(=O)Nc1cc(C(F)(F)F)ccc1F [Example-44, 4-(3-(2,6-Dichlorophenyl)-5-oxo-4,5-dihydro-1H-1,2,4-triazol-1-yl)-N-(2-fluoro-5-(trifluoromethyl)phenyl)-2-methoxybenzamide] | 97.4 | 99 | > 7.30 | – |
| O=C(Nc1cc(C(F)(F)F)ccc1F)c1ccc(-n2nc(-c3c(F)cccc3Cl)[nH]c2=O)cc1 [Example-34, 4-(3-(2-Chloro-6-fluorophenyl)-5-oxo-4,5-dihydro-1H-1,2,4-triazol-1-yl)-N-(2-fluoro-5-(trifluoromethyl)phenyl)benzamide] | 70.7 | 92.3 | – | – |
| COc1cc(-n2nc(-c3c(F)cccc3Cl)[nH]c2=O)ccc1C(=O)NC1(c2ccccc2C(F)(F)F)CC1 [Example-26, 4-(3-(2-Chloro-6-fluorophenyl)-5-oxo-4,5-dihydro-1H-1,2,4-triazol-1-yl)-2-methoxy-N-(1-(2-(trifluoromethyl)phenyl)cyclopropyl)benzamide] | 80.6 | 88.1 | < 7.00 | – |
| COc1cc(-n2nc(-c3c(F)cccc3Cl)[nH]c2=O)ccc1C(=O)Nc1ccc(F)c(C(F)(F)F)c1 [Example-33, 4-(3-(2-Chloro-6-fluorophenyl)-5-oxo-4,5-dihydro-1H-1,2,4-triazol-1-yl)-N-(4-fluoro-3-(trifluoromethyl)phenyl)-2-methoxybenzamide] | 89.4 | 96.8 | > 7.30 | – |
| CC(C)(C)C(=O)NCc1ccc(Cl)c(-n2nc(-c3ccc(C#CC4CC4)cc3)[nH]c2=O)c1F [Example-112, N-(4-Chloro-3-(3-(4-(2-cyclopropylethynyl)phenyl)-4,5-dihydro-5-oxo-1,2,4-triazol-1-yl)-2-fluorobenzyl)pivalamide] | 99.5 | 99.8 | > 7.30 | – |
| COc1cc(-n2nc(-c3c(Cl)cccc3Cl)[nH]c2=O)ccc1-c1nc(C(C)C)no1 [Example-50, 3-(2,6-Dichlorophenyl)-1-(4-(3-isopropyl-1,2,4-oxadiazol-5-yl)-3-methoxyphenyl)-1H-1,2,4-triazol-5(4H)-one] | 95.3 | 99.8 | 7.00 to 7.30 | – |
| COc1cc(-n2nc(-c3c(Cl)cccc3Cl)[nH]c2=O)ccc1C(=O)Nc1cc(CNC(=O)C2CC2)ccc1Cl [Example-64, N-(2-Chloro-5-(cyclopropanecarboxamidomethyl)phenyl)-4-(3-(2,6-dichlorophenyl)-5-oxo-4,5-dihydro-1H-1,2,4-triazol-1-yl)-2-methoxybenzamide] | 28.9 | 63.8 | – | – |
| COc1cc(-n2nc(-c3c(F)cccc3Cl)[nH]c2=O)ccc1C(=O)Nc1nnc(C(F)(F)F)s1 [Example-48, 4-(3-(2-Chloro-6-fluorophenyl)-5-oxo-4,5-dihydro-1H-1,2,4-triazol-1-yl)-2-methoxy-N-(5-(trifluoromethyl)-1,3,4-thiadiazol-2-yl)benzamide] | 98.3 | 100 | > 7.30 | – |
| O=C(NCc1cc(-c2nn(-c3ccc(C(F)(F)F)cc3)c(=O)[nH]2)c(Cl)cc1F)C(F)(F)F [Example-113, N-(4-chloro-2-fluoro-5-(1-(4-(trifluoromethyl)phenyl)-4,5-dihydro-5-oxo-1H-1,2,4-triazol-3-yl)benzyl)-2,2,2-trifluoroacetamide] | 99.3 | 99.1 | > 7.30 | – |
| COc1cc(-n2nc(-c3c(F)cccc3Cl)[nH]c2=O)ccc1C(=O)Nc1ccc(C)cc1F [Example-39, 4-(3-(2-Chloro-6-fluorophenyl)-5-oxo-4,5-dihydro-1H-1,2,4-triazol-1-yl)-N-(2-fluoro-4-methylphenyl)-2-methoxybenzamide] | 90.1 | 96.4 | 7.00 to 7.30 | – |
| CC(C)(C)C(=O)NCc1cc(-n2nc(-c3ccc(C#CC4CC4)cc3)[nH]c2=O)c(Cl)cc1F [Example-136, N-(4-Chloro-5-(3-(4-(2-cyclopropylethynyl)phenyl)-4,5-dihydro-5-oxo-1,2,4-triazol-1-yl)-2-fluorobenzyl)pivalamide] | 95.1 | 94.8 | > 7.30 | – |
| COc1ccc(-n2nc(-c3c(Cl)ccc(CNC(=O)C(C)(C)C)c3F)[nH]c2=O)cc1 [Example-86, N-(4-Chloro-2-fluoro-3-(1-(4-methoxyphenyl)-5-oxo-4,5-dihydro-1H-1,2,4-triazol-3-yl)benzyl)pivalamide] | 79.9 | 96.7 | < 7.00 | – |
| O=c1[nH]c(-c2c(F)cccc2Cl)nn1-c1ccc(C#Cc2ccc(F)nc2)cc1 [Example-5, 5-(2-Chloro-6-fluorophenyl)-2-{4-[(6-fluoropyridin-3-yl)ethynyl]phenyl}-2,4-dihydro-3H-1,2,4-triazol-3-one] | 91.8 | 86.2 | > 7.30 | – |
| CC(C)(C)C(=O)NCc1ccc(Cl)c(-c2nn(-c3ccc(C#N)cc3)c(=O)[nH]2)c1F [Example-89, N-(4-chloro-3-(1-(4-cyanophenyl)-5-oxo-4,5-dihydro-1H-1,2,4-triazol-3-yl)-2-fluorobenzyl)pivalamide] | 95.3 | 99.1 | > 7.30 | – |
| O=C(NCc1ccc(F)cc1C(F)(F)F)c1ccc(-n2nc(-c3c(F)cccc3Cl)[nH]c2=O)cc1 [Example-28, 4-(3-(2-Chloro-6-fluorophenyl)-5-oxo-4,5-dihydro-1H-1,2,4-triazol-1-yl)-N-(4-fluoro-2-(trifluoromethyl)benzyl)benzamide] | 72.2 | 95.5 | – | – |
| COc1cc(-n2nc(-c3cc(CNC(=O)C4CC4)ccc3Cl)[nH]c2=O)ccc1NC(=O)C1CC1 [Example-66, N-(4-Chloro-3-(1-(4-(cyclopropanecarboxamido)-3-methoxyphenyl)-5-oxo-4,5-dihydro-1H-1,2,4-triazol-3-yl)benzyl)cyclopropanecarboxamide] | 87.8 | 98.8 | < 7.00 | – |

More lines, now with the values ahead:

| inhibition at 1 µM (crude microsomal fractions) [%] | inhibition at 10 µM (crude microsomal fractions) [%] | pIC50 | inhibition at 3 µM (3 μM test compound, crude microsomal fractions, read-out: Percentage inhibition at 3 μM) [%] | SMILES |
| --- | --- | --- | --- | --- |
| 72.3 | 92.5 | < 7.00 | – | CC(C)(C)C(=O)NCc1cnc(C2CC2)c(-c2nn(-c3ccc(C(F)(F)F)cc3)c(=O)[nH]2)c1 [Example-180, N-((6-Cyclopropyl-5-(1-(4-(trifluoromethyl)phenyl)-4,5-dihydro-5-oxo-1H-1,2,4-triazol-3-yl)pyridin-3-yl)methyl)pivalamide] |
| 94.2 | 98.9 | > 7.30 | – | CC(C)(C)C(=O)NCc1ccc(Cl)c(-n2nc(-c3ccc(C(F)(F)F)cc3)[nH]c2=O)c1 [Example-145, N-(4-Chloro-3-(3-(4-(trifluoromethyl)phenyl)-4,5-dihydro-5-oxo-1,2,4-triazol-1-yl)benzyl)pivalamide] |
| 100 | 99.7 | > 7.30 | – | CC(C)(C)C(=O)NCc1ccc(Cl)c(-n2nc(-c3ccc(C(F)(F)F)c(F)c3)[nH]c2=O)c1 [Example-146, N-(4-Chloro-3-(3-(3-fluoro-4-(trifluoromethyl)phenyl)-4,5-dihydro-5-oxo-1,2,4-triazol-1-yl)benzyl)pivalamide] |
| 98.6 | 94.3 | > 7.30 | – | O=C(NCc1ccc(Cl)c(-c2nn(-c3ccc(C(F)(F)F)cc3)c(=O)[nH]2)c1)C1CCC1 [Example-184, N-(4-Chloro-3-(5-oxo-1-(4-(trifluoromethyl)phenyl)-4,5-dihydro-1H-1,2,4-triazol-3-yl)benzyl)cyclobutanecarboxamide] |
| 98.6 | 97.5 | > 7.30 | – | CC(C)C(=O)NCc1cnc(C(F)F)c(-c2nn(-c3ccc(C(F)(F)F)cc3)c(=O)[nH]2)c1 [Example-187, N-((6-(Difluoromethyl)-5-(5-oxo-1-(4-(trifluoromethyl)phenyl)-4,5-dihydro-1H-1,2,4-triazol-3-yl)pyridin-3-yl)methyl)isobutyramide] |
| 98.5 | 99.2 | > 7.30 | – | CC(C)(C)C(=O)NCc1ccc(Cl)c(-c2nn(-c3cc(F)cc(C(F)(F)F)c3)c(=O)[nH]2)c1 [Example-156, N-(4-Chloro-3-(1-(3-fluoro-5-(trifluoromethyl)phenyl)-4,5-dihydro-5-oxo-1H-1,2,4-triazol-3-yl)benzyl)pivalamide] |
| 41.5 | 85.5 | – | – | N#Cc1cnc(C(F)F)c(-c2nn(-c3ccc(C(F)(F)F)cc3)c(=O)[nH]2)c1 [Example-183, 6-(Difluoromethyl)-5-(5-oxo-1-(4-(trifluoromethyl)phenyl)-4,5-dihydro-1H-1,2,4-triazol-3-yl)nicotinonitrile] |
| 99.3 | 99.3 | > 7.30 | – | CC(C)S(=O)(=O)NCc1ccc(Cl)c(-c2nn(-c3ccc(C(F)(F)F)cc3)c(=O)[nH]2)c1 [Example-162, N-(4-Chloro-3-{5-oxo-1-[4-(trifluoromethyl)phenyl]-4,5-dihydro-1H-1,2,4-triazol-3-yl}benzyl)propane-2-sulfonamide] |
